# Biological target: T1, human TGR5 (Homo sapiens, UniProt Q8TDU6)
# T1 construct: expressed in transfected cells; host or cells: HEK293
# T1 sequence (Q8TDU6 1-330): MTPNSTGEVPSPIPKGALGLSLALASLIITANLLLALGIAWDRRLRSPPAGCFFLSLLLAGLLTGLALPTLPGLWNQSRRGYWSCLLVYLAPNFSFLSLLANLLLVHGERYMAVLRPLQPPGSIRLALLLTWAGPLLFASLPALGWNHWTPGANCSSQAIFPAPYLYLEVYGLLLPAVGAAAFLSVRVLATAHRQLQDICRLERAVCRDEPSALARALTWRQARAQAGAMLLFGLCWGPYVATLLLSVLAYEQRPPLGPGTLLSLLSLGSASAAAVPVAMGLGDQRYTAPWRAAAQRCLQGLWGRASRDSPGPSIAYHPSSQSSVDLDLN
# Assay: Cell-based TGR5 assay (cAMP generation, HTRF)
# Settings: HEK293 cells stably transfected with human TGR5; cAMP by HTRF; 30 minutes at 37° C.; read-out: pEC50 Human TGR5 (converted)
# In short: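 First, compounds in 3-fold serial dilution were placed in HBSS with 10 mM HEPES pH 7.4 and 0.5 mM IBMX. Next, human TGR5-expressing HEK293 cells were added and incubated 30 min at 37° C. Finally, cAMP was detected by HTRF and pEC50 derived by logistic fitting.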
row,EC50 [µM],Structure (SMILES)
1,0.126 to 1,"Cc1ccc(C(C)CCCC(=O)N(CCN(C)C)C[C@H](O)[C@@H](O)[C@H](O)[C@H](O)CO)cc1CNC1(c2cnccc2-c2ccccc2OC2CC2)CC1 (stereo partly drawn) [Compound I-361, 5-{3-[({1-[4-(2-cyclopropoxyphenyl)pyridin-3-yl]cyclopropyl}amino)methyl]-4-methylphenyl}-N-[2-(dimethylamino)ethyl]-N-[(2S,3R,4R,5R)-2,3,4,5,6-pentahydroxyhexyl]hexanamide]"
2,< 0.1,"C[C@@H](CCCCNC(=O)NC[C@H](O)[C@@H](O)[C@H](O)[C@H](O)CO)c1ccc(Cl)c(CNC2(c3cnccc3-c3ccccc3OC3CC3)CC2)c1 (single isomer, unassigned) [Compound I-255]"
3,1.26 to 10,"CCC(OCc1cc(Cl)ccc1Cl)c1cnccc1-c1ccccc1OC1CC1 (stereo not shown) [Compound I-779, 4-(2-cyclopropoxyphenyl)-3-(1-((2,5-dichlorobenzyl)oxy)propyl)pyridine]"
4,0.126 to 1,"O=C(CCS(=O)(=O)c1ccccc1)N(CCCCc1cc(Cl)c(COC2(c3cnccc3-c3ccccc3OC3CC3)CC2)cc1Cl)C[C@H](O)[C@@H](O)[C@H](O)[C@H](O)CO [Compound I-70, 3-(benzenesulfonyl)-N-{4-[2,5-dichloro-4-({1-[4-(2-cyclopropoxyphenyl)pyridin-3-yl]cyclopropoxy}methyl)phenyl]butyl}-N-[(2S,3R,4R,5R)-2,3,4,5,6-pentahydroxyhexyl]propanamide]"
5,< 0.1,"CC(CCCN(CCS(C)(=O)=O)C(=O)[C@@H](O)[C@@H](O)[C@H](O)[C@@H](O)CO)c1ccc(Cl)c(CNC2(c3cnccc3-c3ccccc3OC3CC3)CC2)c1 (stereo partly drawn) [Compound I-289, (2S,3S,4R,5S)-N-(4-{4-chloro-3-[({1-[4-(2-cyclopropoxyphenyl)pyridin-3-yl]cyclopropyl}amino)methyl]phenyl}pentyl)-2,3,4,5,6-pentahydroxy-N-(2-methanesulfonylethyl)hexanamide]"
6,< 0.1,"CN(CCCCc1cc(Cl)c(COC2(c3cnccc3-c3ccccc3OC3CC3)CC2)cc1Cl)C(=O)[C@@H](O)[C@@H](O)[C@H](O)[C@@H](O)CO (stereo in doubt) [Compound I-184, (2S,3S,4R,5S)-N-{4-[2,5-dichloro-4-({1-[4-(2-cyclopropoxyphenyl)pyridin-3-yl]cyclopropoxy}methyl)phenyl]butyl}-2,3,4,5,6-pentahydroxy-N-methylhexanamide]"
7,< 0.1,"CC(CCCC(=O)NC[C@H](O)[C@@H](O)[C@H](O)[C@H](O)CO)c1ccc(Cl)c(CNC2(c3cnccc3-c3ccccc3OC3CC3)CC2)c1 (stereo partly drawn) [Compound I-316, 5-{4-chloro-3-[({1-[4-(2-cyclopropoxyphenyl)pyridin-3-yl]cyclopropyl}amino)methyl]phenyl}-N-[(2S,3R,4R,5R)-2,3,4,5,6-pentahydroxyhexyl]hexanamide]"
8,< 0.1,"O=C(NCCC1CCN(S(=O)(=O)c2ccc(Cl)c(COC3(c4cnccc4-c4ccccc4OC4CC4)CC3)c2)CC1)[C@@H](O)[C@@H](O)[C@H](O)[C@@H](O)CO [Compound I-462, (2S,3S,4R,5S)-N-(2-{1-[4-chloro-3-({1-[4-(2-cyclopropoxyphenyl)pyridin-3-yl]cyclopropoxy}methyl)benzenesulfonyl]piperidin-4-yl}ethyl)-2,3,4,5,6-pentahydroxyhexanamide]"
9,< 0.1,"CC(CCCCNC(=O)N[C@@H](CO)[C@@H](O)[C@H](O)[C@H](O)CO)c1ccc(Cl)c(CNC2(c3cnccc3-c3ccccc3OC3CC3)CC2)c1 (stereo partly drawn) [Compound I-266, 1-(5-{4-chloro-3-[({1-[4-(2-cyclopropoxyphenyl)pyridin-3-yl]cyclopropyl}amino)methyl]phenyl}hexyl)-3-[(2S,3R,4S,5R)-1,3,4,5,6-pentahydroxyhexan-2-yl]urea]"
10,< 0.1,"CC(CCCC(=O)N(CCO)C[C@H](O)[C@@H](O)[C@H](O)[C@H](O)CO)c1ccc(Cl)c(COC2(c3cnccc3-c3ccccc3OC3CC3)CC2)c1 (stereo partly drawn) [Compound I-374, 5-[4-chloro-3-({1-[4-(2-cyclopropoxyphenyl)pyridin-3-yl]cyclopropoxy}methyl)phenyl]-N-(2-hydroxyethyl)-N-[(2S,3R,4R,5R)-2,3,4,5,6-pentahydroxyhexyl]hexanamide]"

# Source: US12084472B2 (Ardelyx, Inc., priority 2015, dated 2024)
